Reference: the supplement of paper PMC10307832

Tests used:
Assay in all cases: relative viability (nuclei count vs DMSO), 5 days (fraction); higher = more cells survive
[1] = compound: CC(C)CCN1c2nc(Nc3cc(F)c(O)c(F)c3)ncc2N(C)C(=O)C1C [BI-D1870] + CC(C)C[C@H](NC(=O)[C@H](Cc1ccccc1)NC(=O)c1cnccn1)B(O)O [Bortezomib] (partner 0.002 µM)
Procedure, shortened: (§1)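 The day after seeding in 1536-well plates, lung cancer cell lines were treated by pin tool with a single drug, or with a fixed anchor-drug dose together with five library-drug doses (not always all listed) in √10 steps. After 5 days, a combined fix-and-stain solution (final 0.05% Triton X-100, 1% formaldehyde, 1 ug/ml Hoechst) was added. Nuclei counted on 4× images gave relative viability as treated counts over vehicle counts, reported as the median of duplicate plates.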

[2] = compound: CC(C)CCN1c2nc(Nc3cc(F)c(O)c(F)c3)ncc2N(C)C(=O)C1C [BI-D1870] + C[C@]1(O)C[C@@H](c2nc(-c3ccc4ccc(-c5ccccc5)nc4c3)c3c(N)nccn32)C1 [Linsitinib] (partner 1 µM)
Procedure, shortened: as §1

[3] = compound: O=c1ncccn1[C@@H]1O[C@H](CO)[C@@H](O)[C@H]1O [Zebularine] + CC(=O)c1c(C)c2cnc(Nc3ccc(N4CCNCC4)cn3)nc2n(C2CCCC2)c1=O [Palbociclib] (partner 0.5 µM)
Procedure, shortened: as §1

[4] = compound: O=c1ncccn1[C@@H]1O[C@H](CO)[C@@H](O)[C@H]1O [Zebularine] + Cc1nc(Nc2ncc(C(=O)Nc3c(C)cccc3Cl)s2)cc(N2CCN(CCO)CC2)n1 [Dasatinib] (partner 0.075 µM)
Procedure, shortened: as §1

Cell Line | relative viability ([1]; first compound 0.04 µM) | relative viability ([1]; first compound 0.1265 µM) | relative viability ([1]; first compound 0.4 µM) | relative viability ([1]; first compound 1.265 µM) | relative viability ([1]; first compound 4 µM) | relative viability ([2]; first compound 0.04 µM) | relative viability ([2]; first compound 0.1265 µM) | relative viability ([2]; first compound 0.4 µM) | relative viability ([2]; first compound 1.265 µM) | relative viability ([2]; first compound 4 µM) | relative viability ([3]; first compound 1 µM) | relative viability ([3]; first compound 3.162 µM) | relative viability ([3]; first compound 10 µM) | relative viability ([3]; first compound 31.62 µM) | relative viability ([3]; first compound 100 µM) | relative viability ([4]; first compound 1 µM) | relative viability ([4]; first compound 3.162 µM) | relative viability ([4]; first compound 10 µM) | relative viability ([4]; first compound 31.62 µM) | relative viability ([4]; first compound 100 µM)
LCLC-103H | 1.28 | 1.09 | 1.06 | 1.17 | 1.06 | 1.17 | 1.02 | 1.05 | 1.36 | 1.06 | 0.49 | 0.45 | 0.482 | 0.505 | 0.473 | 0.485 | 0.479 | 0.251 | 0.475 | 0.44
LOU-NH91 | 0.485 | 0.465 | 0.451 | 0.484 | 0.466 | 0.98 | 0.908 | 0.996 | 0.986 | 0.769 | 0.54 | 0.524 | 0.518 | 0.552 | 0.47 | 0.569 | 0.595 | 0.553 | 0.571 | 0.473
LU99A | 1.34 | 1.03 | 1.12 | 1.06 | 1.02 | 0.617 | 0.435 | 0.519 | 0.48 | 0.496 | 0.483 | 0.433 | 0.331 | 0.278 | 0.187 | 0.722 | 0.523 | 0.44 | 0.325 | 0.116
LXF-289 | 1.05 | 1.02 | 1 | 0.977 | 0.879 | 1.05 | 0.91 | 0.943 | 0.947 | 0.916 | 0.641 | 0.66 | 0.573 | 0.395 | 0.233 | 0.233 | 0.187 | 0.184 | 0.175 | 0.154
NCI-H23 | 1.44 | 0.85 | 1.16 | 1.03 | 0.529 | 0.911 | 0.385 | 0.586 | 0.61 | 0.685 | 0.482 | 0.473 | – | 0.576 | 0.411 | 0.83 | 0.876 | 0.497 | 0.774 | 0.791
NCI-H322M | 1.23 | 1.24 | 1.22 | 1.14 | 1.06 | 1.05 | 0.904 | 0.826 | 0.879 | 0.883 | 0.467 | 0.486 | 0.471 | 0.463 | 0.496 | 0.257 | 0.263 | 0.237 | 0.278 | 0.246
NCI-H441 | 0.749 | 0.535 | 0.796 | 0.777 | 0.71 | 0.871 | 0.429 | 0.481 | 0.493 | 0.518 | 0.235 | 0.21 | 0.207 | 0.148 | 0.181 | 0.705 | 0.619 | 0.394 | 0.41 | 0.271
NCI-H460 | 1.45 | 1.01 | 1.06 | 0.686 | 0.51 | 0.974 | 0.629 | 0.655 | 0.434 | 0.0477 | 0.201 | 0.136 | 0.161 | 0.117 | 0.0697 | 0.725 | 0.527 | 0.326 | 0.304 | 0.0827
NCI-H520 | 0.618 | 0.521 | 0.525 | 0.542 | 0.309 | 1 | 0.846 | 0.985 | 0.803 | 0.678 | 0.213 | 0.217 | 0.202 | 0.201 | 0.175 | 0.195 | 0.175 | 0.14 | 0.172 | 0.164
NCI-H647 | 1.02 | 0.857 | 1.08 | 1.31 | 0.743 | 1.14 | 1.2 | 1.26 | 1.22 | 0.871 | 0.334 | 0.34 | 0.149 | 0.0894 | 0.104 | 0.202 | 0.208 | 0.129 | 0.101 | 0.109
NCI-H650 | 1.11 | 0.784 | 0.899 | 0.96 | 0.611 | 1.12 | 0.733 | 0.905 | 0.704 | 0.855 | 0.358 | 0.376 | 0.296 | 0.263 | 0.195 | 0.462 | 0.486 | 0.403 | 0.397 | 0.268
NCI-H661 | 0.801 | 0.67 | 0.695 | 1.01 | 0.808 | 0.515 | 0.485 | 0.489 | 0.535 | 0.593 | 0.406 | 0.4 | 0.425 | 0.435 | 0.438 | 0.833 | 0.918 | 0.868 | 1.05 | 0.819
NCI-H727 | 0.813 | 0.724 | 0.913 | 1.24 | 0.833 | 0.323 | 0.328 | 0.252 | 0.371 | 0.261 | 0.652 | 0.729 | 0.69 | 0.634 | 0.618 | 0.383 | – | – | 0.349 | 0.356
NCI-H838 | 0.901 | 0.72 | 0.747 | 1.14 | 0.768 | 1.13 | 0.962 | 0.998 | 1.13 | 0.957 | 0.222 | 0.257 | 0.223 | 0.238 | 0.219 | 0.318 | 0.238 | 0.239 | 0.268 | 0.278
NCI-H1355 | 1.24 | 1.22 | 1.21 | 1.28 | 1.02 | 0.842 | 0.81 | 0.788 | 0.788 | 0.75 | 0.402 | 0.371 | 0.384 | 0.303 | 0.252 | 0.757 | 0.746 | 0.525 | 0.617 | 0.458
NCI-H1437 | 0.539 | 0.474 | 0.478 | 0.466 | 0.423 | 1.06 | 0.943 | 0.979 | 0.909 | 0.691 | 0.308 | 0.33 | 0.308 | 0.453 | 0.329 | 0.521 | 0.462 | 0.333 | 0.531 | 0.459
